Assay results: US8815796B2, “Polyheterocyclic compounds highly potent as HCV inhibitors” (AB Pharma Ltd., priority 2010, dated 2014)

Target: T1, HCV NS3-4A protease (Hepatitis C virus genotype 1a, UniProt P27958)
T1 construct: HCV NS3-4A protease
Assay: HCV NS3-4A protease assay in vitro (FRET-S substrate)
Type: biochemical
Conditions: not given
Procedure: HCV NS3-4A Protease Assay In Vitro.
The assay was conducted in Buffer A containing 30 mM NaCl, 5 mM CaCl2, 10 mM DTT, 50 mM Tris (pH7.8), using the Ac-Asp-Glu-Asp(EDANS)-Glu-Glu-Abu-ψ-[COO]-Ala-Ser-Lys (DABCYL)-NH2 (FRET-S) fluorescent peptide (AnaSpec, USA) as substrate. Briefly, 140 μL buffer A, 20 μL compounds dissolved in buffer A with different concentration and 20 μL HCV NS3-4A protease diluted in buffer A were added into 96-well plate respectively and mixed well. The reaction was initiate with adding 20 μL of FRET-S. Reactions were continuously monitored at 37° C. using a BMG Polarstar Galaxy (MTX Lab Systems, Inc. USA), with excitation and emission filters of 355 nm and 520 nm, respectively. The 50% inhibitory concentration (IC50) was calculated with Reed & Muench methods.

T1 sequence (P27958 1027-1657): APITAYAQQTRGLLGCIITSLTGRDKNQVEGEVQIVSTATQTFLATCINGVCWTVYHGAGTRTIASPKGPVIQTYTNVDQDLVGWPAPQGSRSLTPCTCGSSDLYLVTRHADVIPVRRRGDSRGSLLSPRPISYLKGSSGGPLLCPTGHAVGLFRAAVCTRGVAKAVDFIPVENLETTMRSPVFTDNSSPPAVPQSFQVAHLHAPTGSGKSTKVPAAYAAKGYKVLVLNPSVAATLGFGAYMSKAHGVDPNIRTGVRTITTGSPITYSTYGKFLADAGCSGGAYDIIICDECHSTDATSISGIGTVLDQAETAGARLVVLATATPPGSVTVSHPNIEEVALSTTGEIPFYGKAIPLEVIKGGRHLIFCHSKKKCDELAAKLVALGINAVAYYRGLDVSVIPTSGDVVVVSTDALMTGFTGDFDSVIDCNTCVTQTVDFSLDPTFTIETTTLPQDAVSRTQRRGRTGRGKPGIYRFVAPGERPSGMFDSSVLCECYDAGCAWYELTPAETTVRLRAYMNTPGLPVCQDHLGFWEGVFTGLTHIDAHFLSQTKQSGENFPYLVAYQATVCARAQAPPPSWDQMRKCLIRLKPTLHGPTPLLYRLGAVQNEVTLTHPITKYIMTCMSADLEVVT
T1 sequence (P27958 1658-1711): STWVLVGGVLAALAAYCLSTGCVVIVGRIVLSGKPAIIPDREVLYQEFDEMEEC

Row | Compound | IC50
1 | C=C[C@H]1C[C@@]1(NC(=O)C1C[C@@H](OC(=O)N2Cc3ccc4c(c3C2)OCCO4)CN1C(=O)[C@@H](NC(=O)[C@@H](NC(=O)c1cnccn1)C1CCCCC1)C(C)(C)C)C(=O)NS(=O)(=O)C1CC1 (stereo partly drawn) [Compound 30d] | < 30 nM
2 | C=C[C@H]1C[C@@]1(NC(=O)C1C[C@@H](OC(=O)N2Cc3cc4c(cc3C2)OCCO4)CN1C(=O)[C@@H](NC(=O)[C@@H](NC(=O)c1cnccn1)C1CCCCC1)C(C)(C)C)C(=O)NS(=O)(=O)C1CC1 (stereo partly drawn) [Compound 30c] | < 30 nM
3 | CC[C@H]1C[C@@]1(NC(=O)C1C[C@@H](OC(=O)N2Cc3cc4c(cc3C2)OCO4)CN1C(=O)[C@@H](NC(=O)[C@@H](NC(=O)NC(C)(C)C)C1CCCCC1)C(C)(C)C)C(=O)NS(=O)(=O)C1CC1 (stereo partly drawn) [Compound 30ac] | < 30 nM

Same assay, conditions: HCV NS3-4A protease inhibition, 37° C., class symbols; read-out: NS3-NS4A IC50

Row | Compound | IC50
4 | CC(C)(C)OC(=O)N[C@H]1CCCCC/C=C\[C@@H]2C[C@@]2(C(=O)NS(=O)(=O)C2CC2)NC(=O)[C@@H]2C[C@@H](OC(=O)N3Cc4cc5c(cc4C3)OCCO5)CN2C1=O [Compound 12c] | < 30 nM
5 | CC(C)S(=O)(=O)NC(=O)[C@@]12C[C@H]1/C=C\CCCCCN(C)C(=O)N1CC(OC(=O)N3Cc4cc5c(cc4C3)OCO5)C[C@H]1C(=O)N2 (stereo partly drawn) [Compound 27c] | 30 to 200 nM
6 | COc1ccc(S(=O)(=O)N[C@H]2CCCCC/C=C\[C@@H]3C[C@@]3(C(=O)NS(=O)(=O)C3CC3)NC(=O)[C@@H]3C[C@@H](OC(=O)N4Cc5cc6c(cc5C4)OCO6)CN3C2=O)cc1 [Compound 16c] | < 30 nM
7 | O=C1N[C@]2(C(=O)NS(=O)(=O)C3CC3)C[C@H]2/C=C\CCCCC[C@H](N2CCCS2(=O)=O)C(=O)N2C[C@H](OC(=O)N3Cc4cc5c(cc4C3)OCCO5)C[C@@H]12 [Compound 12j] | 30 to 200 nM
8 | CN1CCCCC/C=C\[C@@H]2C[C@@]2(C(=O)NS(=O)(=O)C2CC2)NC(=O)[C@@H]2CC(OC(=O)N3Cc4cc5c(cc4C3)OCO5)CN2C1=O (stereo partly drawn) [Compound 27a] | 30 to 200 nM
9 | CC(C)(C)OC(=O)N[C@H]1CCCCC/C=C\[C@@H]2C[C@@]2(C(=O)O)NC(=O)[C@@H]2C[C@@H](OC(=O)N3Cc4ccc5c(c4C3)OCO5)CN2C1=O [Compound 11a] | > 200 nM
